Measurements taken from patent US8497352B2, “Use of Wnt5-α peptide derivates for the treatment of melanoma and gastric cancer” (Wntresearch AB, priority 2008, dated 2013).
Where no end group is shown, it is not given here. The star is where a group is joined. For = O=C*

What was measured:
A2058 melanoma cells = assay: Wound-healing assay (migration), A2058 cells; format: cell-based, human; conditions: 50 μM Foxy5, 0, 16, 24, 40 and 48 hours
Description: (§1) Cells were plated in 12 well plates and allowed to grow into a confluent layer in complete RPMI (for A2058 cells) or complete McCoy's 5A medium (for HTB63 cells). As indicated, cells were pre-incubated with the Box5 peptide (100 μM) or control solvent for 40 min with continuous agitation. A wound was then inflicted by making a scratch through the confluent layer of cells with a pipette tip. During the migration period of the assay, cells were incubated either in serum-free medium or in the case of HTB63 cells in their own serum-free-conditioned medium collected from cells cultured for 48 h and used within 2 days after collection. The exact conditions of each experiment are described above. To avoid loss of activity, cell medium was changed after 24 hours. A picture for each scratch was taken in the same area of cells at 0, 16, 24, 40 and 48 hours, and wound healing was measured as percentage of wound area closed. For each experimental condition wound healing was analysed in triplicate. All data were based on 3 to 8 separate experiments as indicated.

breast cancer cell = conditions: breast tumor cells lacking endogenous Wnt-5a; cited from earlier work
breast cancer metastasis = conditions: mouse model; cited from earlier work
HTB63 melanoma cells [1] = assay: Wound-healing assay (migration), HTB63 cells; format: cell-based, human; conditions: 10 μM SB431542, serum-free medium
Description: as §1

HTB63 melanoma cells [2] = assay: BD Matrigel invasion chamber assay, HTB63 cells; format: cell-based, human; conditions: 10 μM SB431542, 24 hours
Description: Cell invasion was analyzed using the BD Matrigel™ invasion chamber assay (BD Biosciences, Bedford, Mass.). Prior to the initiation of each experiment, the cells were detached with Versene and re-suspended as single cells in serum-free RPMI medium. As indicated, cells were pre-incubated with the Box5 peptide (100 μM) or control solvent for 40 min with continuous agitation. An aliquot of the cell suspension containing 25,000 cells and 100 μM Box5 or control solvent was then added to the upper transwell chamber, and the lower chamber was filled with serum-containing (10%) medium. The invasion chambers were shaken horizontally for 5 min to ensure even distribution of the cells in suspension and subsequently across the membrane surface. The cells were allowed to invade for the periods of time indicated at 37° C. in a humidified atmosphere of 5% CO2. The medium was discarded and cells were fixed in 4% paraformaldehyde for 10 min. The cells were stained with 0.5% crystal violet in 20% methanol for 10 min and the non-invading cells on the inner side of the membrane were removed with a cotton-tipped applicator. The membrane was cut out of the chamber using a scalpel blade and the stained cells on the lower chamber side of the membrane were counted.

[3] = tested on: Wnt-5a protein expression; assay: Wnt-5a protein expression in HTB63 cells, Western blot; format: cell-based, human
Description: The cells were either directly lysed in 1× Laemmli buffer containing DTT and boiled for 10 min, or lysed in buffer containing 50 mM Tris-HCl (pH 7.5), 1% Triton X-100, 100 mM NaCl, 10 mM MgCl2, 20% glycerol, 1 mM Na3VO4, and protease inhibitors (20 μg/ml aprotinin, 1 μg/ml leupeptin, 2.5 mM benzamidine, and 2 mM pefabloc). Cell treated with lysis buffer were centrifuged at 15,000 rpm for 5 min at 4° C. The protein content in each sample was determined and adjusted to ensure equal loading of protein in each lane. Thereafter, 50 mM DTT and 5× concentrated Laemmli buffer was added and the samples boiled for 5 min. The samples were separated by SDS polyacrylamide gel electrophoresis and subsequently transferred to PVDF membranes. For immunoblotting the membranes were blocked in PBS supplemented with 0.2% Tween 20 and 1% non-fat milk for Wnt-5a or 3% non-fat milk as for all other antibodies for 1 h. Thereafter the membranes were incubated for 1 h at room temperature or overnight at 4° C. with the indicated primary Ab (1:25,000 for β-actin; 1:1,000 for Wnt-5a and 1:1,000 for TGF-β1) in 2% non-fat milk or 1.5% BSA. After extensive washing in PBS with 0.2% Tween, the membranes were incubated for 1 h with a horseradish peroxidase-conjugated secondary Ab in 2% non-fat milk or 1.5% BSA and again extensively washed. Finally, the Ab-antigen complexes were detected using enhanced chemiluminescence. […]

Row | Molecule | Effect on migration of A2058 cells (A2058 melanoma cells) | Signaling and inhibition of breast cancer cell migration (breast cancer cell) | Breast cancer metastasis (breast cancer metastasis) | Effect on migration of HTB63 cells (HTB63 melanoma cells [1]) | Effect on migration of HTB63 cells in the invasion assay (HTB63 melanoma cells [2]) | Endogenous Wnt-5a protein expression in HTB63 cells ([3]; 10 μM SB431542, 4 days) | Endogenous Wnt-5a protein expression in HTB63 cells ([3]; 10 μM SB431542, 5 days)
1 | Foxy5: Met-Asp-Gly-Cys-Glu-Leu hexapeptide formylated at the N-terminal Met, agonist of Wnt-5a signalling (For-MDGCEL) | promotes | mimic the effects of Wnt-5a | inhibits | – | – | – | –
2 | NC(=O)c1ccc(-c2nc(-c3ccc4c(c3)OCO4)c(-c3ccccn3)[nH]2)cc1 [SB431542] | – | – | – | inhibited | stimulated | significantly reduced | almost abolished
